Experiments:
[1] = Absorption spectrum of the reduced fluorochrome in phosphate-buffered saline (diode array spectrophotometer); type: physicochemical; conditions: for absorption in the visible region: reduced with sodium borohydride, diluted in phosphate-buffered saline, pH 7.4
Procedure: (§1) To 2 ml of a 1 mM solution of rhodamine 800 (Fluke, prod. No. 83701) in 0.1 M borate buffer, pH 8.5 was added approximately 5 mg of sodium borohydride. The mixture was shaken and left at room temperature for two hours. 40 microliters of the reduced solution was added to 960 μl of phosphate-buffered saline, pH 7.4. […] The spectrum of untreated rhodamine 800 (solid line) was recorded by exactly the same procedure. The sample of diluted, reduced fluorochrome was gently oxidized in air and its spectrum recorded (dashed line).
as §1, with “110 (Fluka,” for “800 (Fluke,”, “83695)” for “83701)”, “110” for “800”
as §1, with “fluorescein (Sigma,” for “rhodamine 800 (Fluke,”, “F-6377)” for “83701)”, “fluorescein” for “rhodamine 800”

[2] = Oxidation of reduced rhodamine 110 by hydrogen peroxide, increase in fluorescence; conditions: hydrogen peroxide 10 μM final; emission 538 nm, excitation 485 nm
Procedure: Rhodamine 110 was reduced as in Example 2. Hydrogen peroxide to a final concentration of 10 μM was added to a portion of the solution of reduced rhodamin 110, i.e. to dihydrorhodamin 110, and the increase in fluorescence was recorded at 538 nm (excitation at 485 nm) on a Thermo Fluoroscan Ascent FL fluorimeter.

[3] = Re-oxidation of the diluted, reduced fluorochrome in air, spectrum recorded; type: physicochemical; conditions: gently oxidized in air
Procedure: as §1
as §1, with “110 (Fluka,” for “800 (Fluke,”, “83695)” for “83701)”, “110” for “800”
as §1, with “fluorescein (Sigma,” for “rhodamine 800 (Fluke,”, “F-6377)” for “83701)”, “fluorescein” for “rhodamine 800”

fluorescence following exposure to visible light [1]	optical properties after oxidation of the reduced fluorochrome [3]	Compound	absorption in the visible region [1]	oxidation by hydrogen peroxide (increase in fluorescence) [2]
very little fluorescence	regaining its optical properties	Nc1ccc2c(c1)Oc1cc(N)ccc1C2c1ccccc1C(=O)O [dihydro-rhodamine 110]	virtually no absorption in the visible region	rapidly oxidised
no fluorescence	regaining its optical properties	O=C(O)c1ccccc1C1c2ccc(O)cc2Oc2cc(O)ccc21 [dihydrofluorescein]	losing nearly all absorption in the visible region	–
no fluorescence	regaining its optical properties	N#CC1c2cc3c4c(c2Oc2c1cc1c5c2CCCN5CCC1)CCCN4CCC3 [dihydro-rhodamine 800]	losing nearly all absorption in the visible region	–

— patent US20110318273A1, “FLUORESCENT CONTRAST AGENTS” (GE HEALTHCARE AS, priority 2004, published 2011)
